We go through 1 compound from PMC7048748, “Anxiolytic Drug FGIN-1-27 Ameliorates Autoimmunity by Metabolic Reprogramming of Pathogenic Th17 Cells” (Scientific Reports, 2020).

For one experiment, the system named is STAT3. Kind of experiment: Phospho Stat3 staining after IL-6 re-stimulation. Type of experiment: cell-based, mouse. The note with it: re-stimulation with IL-6. The method, then:
The following day, cells were treated with either DMSO or of FGIN-1-27 (10 μM). For phospho-ZAP70 analyses, cells were stained after 24 hours of treatment using 10 μg/ml of biotinylated anti-CD3 (145-2C11, BD Biosciences) and anti-CD28 (37.51, BD Biosciences) antibodies on ice for 15 minutes, washed, and stimulated in presence of 20 μg/ml of Streptavidin for 10 minutes at 37 degrees. Cells were then fixed in 2% PFA, permeabilized in Methanol/Acetone and stained with anti-phospho ZAP70 antibody (n3kobu5, eBioscience) and anti-CD4 (RM4-5, eBioscience). For phospho-STAT3 analyses, cells were cultured for additional 24 hours in IL-6 free media, before stimulation with 100 ng/ml of mIL-6 for 30 minutes. Cells were then fixed in 2% PFA, permeabilized in Methanol/Acetone and stained with anti-phospho-STAT3 antibody (4/P-STAT3, BD Biosciences) and anti-CD4. Dead cells were excluded using Live/Dead […] (Thermo Fisher) staining prior to stimulation. page 3: Supplementary Figur es Fig S1 (a) Genomic browser screenshot of Tspo depicting normalized RNA-seq read coverage (RPM) in different T cell subsets. Data were downloaded from NCBI GEO (accession number GSE40918) and processed as in Figure 4A. […] (g) Transcript levels for S ta t3 after 24 hours of treatment with DMSO or FGIN-1-27 quantified by qPCR. […]

The next experiment has as its target T1, TSPO (Rattus norvegicus, UniProt P16257).
T1 construct: Eurofins Cerep (France), contract assay
In words: TSPO (BZDp) antagonist radioligand displacement assay. The format is binding. The text has this:
We explored the mechanism of action for FGIN-1-27 and whether the effect of FGIN-1-27 on Th17 differentiation was driven by TSPO, the reported target of this compound. We used two approaches: first, we investigated the correlation between FGIN-1-27 induced IL-17 down-regulation and binding to TSPO. For the binding studies, we used a biochemical radio ligand displacement assay with the well-characterized TSPO ligand PK-11195 as a tracer. […] Secondly, we purified CD4^+ T cells from spleen and lymph nodes of mice that lacked global expression of TSPO (TSPO KO mice)[19]. We added FGIN-1-27 to the cultures of CD4^+ T cells from controls or TSPO KO mice that were induced towards the Th17 differentiation program.
FGIN-1-27 were tested at 8 doses (0.3–40 µM) in the TSPO (BZDp) antagonist radioligand displacement assay at Eurofins Cerep (France). Radiolabeled PK11195 was used as a control and TSPO binding was calculated as a percent inhibition of control specific binding using the formula 100-(measured specific binding*100/control specific binding).
(h) Dose response plot showing effect of FGIN-1-27 on intracellular IL-17 and viability in pre- differentiated Th17 cells after re- stimulation. Data is normalized against […]
(i) Mean clinical scores of mice following active induction of EAE. Mice were injected i/p twice daily with vehicle or FGIN-1-27 for 7 days. Data are pooled from 5 mice/group. […]

The structures appear in SMILES notation.

T1 sequence (P16257 whole entry): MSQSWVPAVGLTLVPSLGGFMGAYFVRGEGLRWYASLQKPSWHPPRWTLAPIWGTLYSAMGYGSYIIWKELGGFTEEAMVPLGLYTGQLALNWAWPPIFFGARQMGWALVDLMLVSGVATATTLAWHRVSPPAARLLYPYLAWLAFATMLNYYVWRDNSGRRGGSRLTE

With `CCCCCCN(CCCCCC)C(=O)Cc1c(-c2ccc(F)cc2)[nH]c2ccccc12` [FGIN-1-27, N, N-di-n-hexyl 2-(4-fluorophenyl) indole-3-acetamide], in the experiment on STAT3, the “phosphorylation of STAT3” value is on record as “did not show a defect”. Moreover, the “displacement of PK-11195” value at TSPO (0.3 µM, lowest validated testing concentration) is “more than 90%”. Also, the “binding to TSPO” value at TSPO (0.3–40 µM) was “high affinity”.
